Source: patent publication US20050065041A1, “GELLED ACID” (SCHLUMBERGER TECHNOLOGY CORPORATION, priority 2003, published 2005)
≈ marks a conversion by molar mass, not a printed value. Like-named read-outs stand apart in the source and are kept apart here.

What was measured:
[1] = Bioaccumulation (Log Pow), OECD Method 117; format: physicochemical; conditions: component in aqueous composition of Table 2
Description: (§1) The bioaccumulation testing was done according to Organization of Economic Co-operation and Development, Paris, (OECD) Method 117. The biodegradation tests were done according to OECD 306. The toxicity tests were done according to the protocol required for application in the North Sea as recommended by OSPAR (the Oslo Paris Commission) for completion of HOCNF (Harmonized Offshore Chemical Notification Format) requirements. The methods are those in effect as of August, 2003, and the MSDS data and public health, safety and environment data given below are as of August, 2003.

[2] = Biodegradation (BOD), OECD 306; conditions: 28 day
Description: as §1

Skeletonema Costatum = assay: OSPAR/HOCNF aquatic toxicity test, Skeletonema Costatum; format: in vivo
Description: as §1
(§2) However, in addition to the excellent toxicity results shown in Table 2, in further OSPAR tests, 2-butanoneoxime had NOEC (No Observable Effect Concentration) values of 8.9 mg/L for Acartia tonsa (48 hours), 1000 mg/L for Scophthalamus maximus juvenile (96 hours), and 99.7 mg/L for Skeletonema Costatum (72 hours), and the 15 day BOD was 6.5%.

Acartia tonsa = assay: OSPAR/HOCNF aquatic toxicity test, Acartia tonsa; format: in vivo
Description: as §1, §2

Abra alba = assay: OSPAR/HOCNF toxicity test, Abra alba; format: in vivo; conditions: printed in the column headed Scophthalamus maximus juvenile EC 50 96 hr
Description: as §1

[3] = Acid spending tests with residue analysis at 121° C.; conditions: 6.89 MPa, six hours
Experimental: Acid spending tests were designed and implemented to analyze for residue for spending tests completed at 121° C. These tests were done with amounts chosen such that not all the limestone could be dissolved. […] Reducing agents and reducing agent precursors were evaluated and compared with hydrazinium hydrochloride. Indiana Limestone was crushed and approximately 25 grams of the limestone chips were placed in ajar that would fit a small autoclave. The gelled acid (2.25-ml of gelled acid solution per gram of chips) was added to the limestone chips, stirred to mix well, placed in the autoclave, pressurized to 6.89 mPa, heated to 121° C. and maintained for six hours. At the conclusion of the test, the autoclave was cooled and depressurized. The jar and contents were removed for examination and analysis.
The spent gelled acid was poured through a strainer to observe the fluid and to determine whether the gel was broken. The chips were also rinsed with deionized water to remove gel and residue from the chips, which were examined and then dried and the final weight determined. All residues were rinsed from the jar and chips, combined, and filtered through a pre-weighed Whatman 541 filter paper. The filter paper was dried to a stable weight to obtain the residue weight.

[4] = Diversion test in limestone cores; conditions: 65.5° C., SDA fluid 5% HCl
Experimental: Diversion: Tests were completed with one-inch diameter and 4 inch length cores of Indiana Limestone. The initial permeability of each was determined with 3% NaCl brine in both the production and treatment directions prior to treatment with the gelled acid fluid. Then the gelled fluid was pumped at a constant pressure of about […] in the treatment direction. The time for acid break-through was also recorded. All tests were completed at 65.5° C. and constant pressure. Three cores were used to test for diversion in each case; two cores were about 18 to about 24 md and 1 core was about 45 to about 60 md. The initial and final permeabilities were determined. After the tests, all cores were CT scanned, cross sectional view, to visualize the wormholing.

[5] = MSDS and public data as of August, 2003; cited from earlier work
[6] = Iron reduction performance: effect of pH and reagent concentration
[7] = Iron reduction as a function of HCl spending; conditions: reagent 2.00%
Experimental: Iron Reduction Performance: All solutions were prepared as indicated using about 0.5% by volume of a concentrate having about 40 weight percent FeCl3, and analyses were done with a HACH 2000 calorimeter, obtained from Hach Company, Loveland, Colo. Standard analyses were as described in the “Water Analyses Handbook,” Hach Company. Total iron was obtained by the FerroZine procedure by form ation of a purple complex observable at 562 nm. The ferrous iron content was determined by the phenanthroline complex procedure determined at 510 nm. An orange complex is formed which is proportional to the iron content. For each analysis, samples of the test solution were taken and diluted 1:100 with water and the appropriate, premeasured reagent pillows were added to the solution. Measurements were determined calorimetrically employing standards for the analyses. For ferrous content, analyses were made quickly to prevent oxidation due to air. Total iron required 5 minutes reaction time. If ferric content was needed, the content was obtained by difference.
The selected iron reducing agent should […] reduce the ferric iron in acid solutions. […] For each of these tests 2.0% of an approximately 10 to 12% aqueous solution or reducing agent or reducing agent precursor was evaluated. This represents approximately twice the concentration to adequately reduce the quantity of Fe^+3 present.

[8] = HPLC Method OECD 117; cited from earlier work
[9] = OECD 306B, seawater; cited from earlier work
[10] = OSPAR/HOCNF aquatic toxicity test, Acartia tonsa; format: in vivo; conditions: Acartia tonsa, in vivo; 48 hr; read-out: Acartia tonsa LC 50 48 hr
Description: as §1, §2

[11] = tested on: Scophthalamus maximus juvenile; assay: OSPAR/HOCNF aquatic toxicity test, Scophthalamus maximus juvenile; format: in vivo
Description: as §1, §2

[12] = Core 2 (highest permeability core)
[13] = Test 1: DI water + 0.50% FeCl3 (pH 2.03), reagent concentration 0.50%
[14] = Test 1: DI water + 0.50% FeCl3 (pH 2.03), reagent concentration 1.00%
[15] = Test 1: DI water + 0.50% FeCl3 (pH 2.03), reagent concentration 1.25%
[16] = Test 2: 15% HCl + 0.50% of a 40% FeCl3 Aqueous Solution, reagent concentration 0.50%
[17] = Test 2: 15% HCl + 0.50% of a 40% FeCl3 Aqueous Solution, reagent concentration 1.00%
[18] = Test 2: 15% HCl + 0.50% of a 40% FeCl3 Aqueous Solution, reagent concentration 1.25%
[19] = Test 2: 15% HCl + 0.50% of a 40% FeCl3 Aqueous Solution, reagent concentration […]
[20] = Test 3: 50% water/CaCl2 + 10% 15% HCl + 0.50% FeCl3, reagent concentration 0.50%
[21] = Test 3: 50% water/CaCl2 + 10% 15% HCl + 0.50% FeCl3, reagent concentration 1.00%
[22] = Test 3: 50% water/CaCl2 + 10% 15% HCl + 0.50% FeCl3, reagent concentration 1.25%
[23] = Test 2: 90% Spent 15% HCl + 0.50% FeCl3
[24] = Test 3: 95% Spent 15% HCl + 0.50% FeCl3
[25] = Test 4: 99% Spent 15% HCl + 0.50% FeCl3
[26] = Test 5: 99.5% Spent 15% HCl + 0.50% FeCl3
[27] = Test 1: DI water + 0.50% FeCl3 (pH 2.03), reagent concentration 1.50%
[28] = Test 1: DI water + 0.50% FeCl3 (pH 2.03), reagent concentration 2.00%
[29] = Test 2: 15% HCl + 0.50% of a 40% FeCl3 Aqueous Solution, reagent concentration 1.50%
[30] = Test 2: 15% HCl + 0.50% of a 40% FeCl3 Aqueous Solution, reagent concentration 2.00%
[31] = Test 3: 50% water/CaCl2 + 10% 15% HCl + 0.50% FeCl3, reagent concentration 1.50%
[32] = Test 3: 50% water/CaCl2 + 10% 15% HCl + 0.50% FeCl3, reagent concentration 2.00%

With Cl.NN [Hydrazinium hydrochloride] the “Bioaccumulation Log Pow” value [1] was less than 0, the “Biodegradability BOD28 day” value [2] was 84% and the “Skeletonema Costatum EC50 24 hr” value (Skeletonema Costatum; 24 hr) was 0.38 µg/mL. The “Acartia tonsa LC 50 48 hr” value (Acartia tonsa; 48 hr) was 0.37 µg/mL, the Abra alba toxicity (Abra alba) was 96 mg/L and the “Residue Remaining” value [3] was 0.278 g. For the same compound, the “Final Permeability” value ([4]; Core 1) was 14.1 md, the “Final Permeability” value [4, 12] was greater than 5000 md and the “Final Permeability” value ([4]; Core 3) was 6.8 md. The hazard rating [5] was “toxic by all routes”.
For NNC(=O)NN [Carbohydrazide], the EC50 (Skeletonema Costatum; Skeletonema costatum, 72 h; read-out: Skeletonema Costatum EC50 72 hr) was 56.7 µg/mL (≈ 0.629 mM), the Iron % reduced [6, 13] was 27.3% and the “Iron Content Fe+2” value [6, 13] was 390 mg/L. The Iron % reduced [6, 14] was 38.5%, the “Iron Content Fe+2” value [6, 14] was 550 mg/L and the Iron % reduced [6, 15] was 46.9%. The “Iron Content Fe+2” value [6, 15] was 670 mg/L, the Iron % reduced [6, 16] was 0.8% and the “Iron Content Fe+2” value [6, 16] was 10 mg/L. The Iron % reduced [6, 17] was 12.2%, the “Iron Content Fe+2” value [6, 17] was 160 mg/L and the Iron % reduced [6, 18] was 29.8%. The “Iron Content Fe+2” value [6, 18] was 390 mg/L, the Iron % reduced [6, 19] was 0.8% and the “Iron Content Fe+2” value [6, 19] was 10 mg/L. For the same compound, the Iron % reduced [6, 20] was 13%, the “Iron Content Fe+2” value [6, 20] was 160 mg/L and the Iron % reduced [6, 21] was 15%. The “Iron Content Fe+2” value [6, 21] was 190 mg/L, the Iron % reduced [6, 22] was 15% and the “Iron Content Fe+2” value [6, 22] was 190 mg/L. For the same compound, the “Iron % reduced” value ([7]; Test 1: 15% HCl + 0.50% FeCl3) was 1.8%, the “Iron Content Fe+2” value ([7]; Test 1: 15% HCl + 0.50% FeCl3) was 20 mg/L and the “Iron % reduced” value [7, 23] was 8.0%. The “Iron Content Fe+2” value [7, 23] was 90 mg/L, the “Iron % reduced” value [7, 24] was 1.6% and the “Iron Content Fe+2” value [7, 24] was 20 mg/L. For the same compound, the “Iron % reduced” value [7, 25] was 20.0%, the “Iron Content Fe+2” value [7, 25] was 160 mg/L and the “Iron % reduced” value [7, 26] was 12.3%. The “Iron Content Fe+2” value [7, 26] was 90 mg/L and the hazard rating [5] was “harmful and an irritant”.
For NN [Hydrazine], the hazard rating [5] is given as “toxic to aquatic species”.
In the case of CCN(O)CC [Diethylhydroxylamine, Diethylhydroxyl amine], the Iron % reduced [6, 13] is reported as 65.7%, the “Iron Content Fe+2” value [6, 13] is reported as 670 mg/L and the Iron % reduced [6, 14] is reported as 73.5%. The “Iron Content Fe+2” value [6, 14] was 750 mg/L, the Iron % reduced [6, 15] was 75.5% and the “Iron Content Fe+2” value [6, 15] was 770 mg/L. The Iron % reduced [6, 27] was 84.3%, the “Iron Content Fe+2” value [6, 27] was 860 mg/L and the Iron % reduced [6, 28] was 89.2%. For the same compound, the “Iron Content Fe+2” value [6, 28] was 910 mg/L, the Iron % reduced [6, 16] was 34.3% and the “Iron Content Fe+2” value [6, 16] was 350 mg/L. The Iron % reduced [6, 17] was 48.0%, the “Iron Content Fe+2” value [6, 17] was 490 mg/L and the Iron % reduced [6, 29] was 52.9%. For the same compound, the “Iron Content Fe+2” value [6, 29] was 540 mg/L, the Iron % reduced [6, 30] was 83.3% and the “Iron Content Fe+2” value [6, 30] was 850 mg/L. For the same compound, the Iron % reduced [6, 20] was 25%, the “Iron Content Fe+2” value [6, 20] was 310 mg/L and the Iron % reduced [6, 21] was 42%. For the same compound, the “Iron Content Fe+2” value [6, 21] was 520 mg/L, the Iron % reduced [6, 31] was 47% and the “Iron Content Fe+2” value [6, 31] was 590 mg/L. The Iron % reduced [6, 32] was 61%, the “Iron Content Fe+2” value [6, 32] was 760 mg/L and the “Iron % reduced” value ([7]; Test 1: 15% HCl + 0.50% FeCl3) was 54.4%. For the same compound, the “Iron Content Fe+2” value ([7]; Test 1: 15% HCl + 0.50% FeCl3) was 620 mg/L, the “Iron % reduced” value [7, 23] was 66.4% and the “Iron Content Fe+2” value [7, 23] was 750 mg/L. The “Iron % reduced” value [7, 24] was 74.4%, the “Iron Content Fe+2” value [7, 24] was 930 mg/L and the “Iron % reduced” value [7, 25] was 88.8%. For the same compound, the “Iron Content Fe+2” value [7, 25] was 710 mg/L, the “Iron % reduced” value [7, 26] was 89.0% and the “Iron Content Fe+2” value [7, 26] was 650 mg/L. For the same compound, the “bioaccumulation (Log Pow), literature value” [8] was 0.43, the biodegradation [9] was “less than 60%” and the hazard rating [5] was “harmful and an irritant”.
In the case of CCC(C)=NO [2-Butanone oxime], the chromatographic logP ([1]; octanol/water) is reported as 1.38, the “NOEC (No Observable Effect Concentration) Skeletonema Costatum” value (Skeletonema Costatum; 72 hours) is reported as 99.7 mg/L and the EC50 (Skeletonema Costatum; Skeletonema costatum, 72 h, read-out: Skeletonema Costatum EC50 72 hr) is reported as 470 µg/mL (≈ 5.39 mM). For the same compound, the LC50 at 48 h [10] was 6930 µg/mL (≈ 79.6 mM), the “NOEC (No Observable Effect Concentration) Acartia tonsa” value (Acartia tonsa; 48 hours) was 8.9 mg/L and the EC50 ([11]; 96 h, read-out: Scophthalamus maximus juvenile EC 50 96 hr) was greater than 3000 µg/mL. The “NOEC (No Observable Effect Concentration) Scophthalamus maximus juvenile” value ([11]; 96 hours) was 1000 mg/L, the “Final Permeability” value ([4]; Core 1) was 34.1 md and the “Final Permeability” value [4, 12] was greater than 5000 md. The “Final Permeability” value ([4]; Core 3) was 49.6 md.
